# Assay results published in patent US8252945B2, “Protective agent for retinal neuronal cell comprising indazole derivative as active ingredient” (UBE Industries, Ltd., priority 2005, dated 2012).
row,melting point,Structure (SMILES)
1,270 to 272 °C,CC(C)(N)c1ccc(-c2ccc3[nH]ncc3c2C#N)cc1.Cl
2,255 to 261 °C (dec.),CC(C)(N)c1ccc(-c2ccc3[nH]ncc3c2[N+](=O)[O-])cc1.Cl
3,258 to 261 °C (dec.),COc1c(-c2ccc(C(C)(C)N)cc2)ccc2[nH]ncc12.Cl.Cl
4,256 to 258 °C (dec.),CC(C)(N)c1ccc(-c2ccc3[nH]ncc3c2-c2ccno2)cc1.Cl.Cl
5,209 to 213 °C (dec.),CC(C)(N)c1ccc(-c2ccc3[nH]ncc3c2C2CC2)nc1.Cl.Cl.Cl
6,219 to 224 °C (dec.),CN(C)c1c(-c2ccc(C(C)(C)N)cc2)ccc2[nH]ncc12.Cl.Cl.Cl
7,170 to 173 °C,CC(C)(N)c1ccc(-c2ccc3[nH]ncc3c2OC(F)F)nc1.Cl.Cl.Cl

row,Structure (SMILES),melting point
1,"CN(C)/C=C/C(=O)c1c(-c2ccc(C(C)(C)NC(=O)OC(C)(C)C)cc2)ccc2nn(C3CCCCO3)cc12 (centres unmarked) [Compound 14, 5-[4-(1-tert-butoxycarbonylamino-1-methylethyl)phenyl]-4-(3-dimethylaminoacryloyl)-2-(tetrahydropyran-2-yl)-2H-indazole]",191 to 194 °C
